Our source for the GI50 and TGI values is PubChem BioAssay (NCI).

Values joined by “and” are separate entries in the source; they are usually repeats but may differ in a detail not shown here. Identical values can stand only once.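 In this assay, cells in 96-well plates receive the compound at five concentrations for 48 hours. Endpoints are linearly interpolated between the surrounding concentrations. The concentration for 50% growth inhibition is given as GI50. TGI marks complete inhibition of growth.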

Test in all cases: growth of human tumour cells (NCI), 48 h
Test [1] concerns UACC-62 melanoma.
In test [2] the test system is RPMI-8226 leukemia.
Test [3] concerns CCRF-CEM leukemia.
The test system of test [4] is BT-549 breast.
Test [5] relates to CAKI-1 renal.
The test system of test [6] is NCI-H23 lung.
The test system of test [7] is SNB-19 CNS.
In test [8] the test system is HCT-116 colon.
Test [9] deals with HCC-2998 colon.
Test [10] has as its system UO-31 renal.

With `CSc1ccc(-c2cn3ccsc3n2)cc1`, the GI50 in test [1] is 25.7 µM; in test [2], 9.2 µM; in test [3], 3.97 µM; in test [4] it was over 60.5 µM; in [5] it was 24.9 µM; in test [6], 19.3 µM. Also, the GI50 in test [7] is 43.5 µM; in test [8], 3.6 µM; in test [9], 20.9 µM; in [10] it was 7.95 µM. Besides, the TGI was over 100 µM in test [1]; over 100 µM in [2]; over 47.1 µM in test [3]; over 100 µM in test [4]; over 100 µM in [5]; over 100 µM in test [6]. The TGI in test [7], in test [8], in test [9] and in [10] was over 100 µM in each case.

As for `COc1ccc(/C(=C(\c2ccccc2)[N+](=O)[O-])c2ccc(OCCN3CCCC3)cc2)cc1`, the GI50 is 1.93 µM in test [1]; 2.53 µM in test [2]; 5.19 µM in test [3]; 4.51 µM in [4]; 2.68 µM in [5]; 4.94 µM in test [6]. Also, the GI50 in test [7] is 5.61 µM; in [8] it was 2.46 µM; in [9] it was 4.16 µM; in [10], 1.12 µM. The TGI in test [1] was 4.24 µM; in [2], 10.6 µM; in test [3], 22.9 µM; in test [4], 17.6 µM; in test [5] it was 9.87 µM; in test [6], 18.6 µM. Moreover, the TGI was determined as 18.6 µM in test [7], 13.5 µM in test [8], 15.5 µM in test [9] and 4.2 µM in test [10].

As for `ClC/C=C/CSc1ncnc2nc[nH]c12`, the GI50 in test [1], in test [2], in test [3], in test [4], in test [5] and in [6] was over 100 µM throughout. The GI50 in test [7], in [8], in test [9] and in test [10] was over 100 µM each time. The TGI in test [1], in test [2], in [3], in [4], in test [5] and in [6] was over 100 µM throughout. Further, the TGI in test [7], in [8], in test [9] and in test [10] was over 100 µM each time.

In the case of `O=C(NOCCO)c1ccc2cncn2c1Nc1ccc(I)cc1F`, the GI50 in [1] was 0.00255 µM and < 0.01 µM; in [2] it was > 10 µM and 24.6 µM; in [3], > 10 µM and 28.1 µM; in [4], > 10 µM and 11.1 µM; in test [5] it was 0.111 µM and 0.292 µM; in [6] it was 0.0189 µM and 0.0195 µM. The GI50 is > 10 µM and 1.99 µM in test [7]; 0.0101 µM and < 0.01 µM in [8]; 0.00299 µM and < 0.01 µM in [9]; 0.0596 µM and 0.0455 µM in [10]. For the same molecule, the TGI in [1] is 0.0343 µM and 0.0433 µM; in test [2] it was over 100 µM; in test [3], over 100 µM; in [4], over 91.7 µM; in test [5], over 100 µM; in test [6] it was > 10 µM and 45.2 µM. For the same molecule, the TGI in test [7] was over 100 µM; in [8] it was > 10 µM and 20.6 µM; in test [10], over 100 µM.

On to `COc1cc(C(=O)/C=C/c2c[nH]c3ccccc23)cc(OC)c1OC`, for which the GI50 in test [1] was under 0.01 µM; in test [2] it was 0.0319 µM; in [3], 0.0254 µM; in [4] it was 0.0288 µM; in test [5], under 0.0193 µM; in [6] it was 0.0602 µM. Also, the GI50 is 0.0342 µM in test [7], under 0.0175 µM in test [8], 0.0959 µM in test [9] and 0.0396 µM in test [10]. Moreover, the TGI worked out at 15.7 µM in test [1]; 2.82 µM in test [2]; 14 µM in [3]; 4.16 µM in [4]; 29.8 µM in test [5]; 45.4 µM in test [6]. Also, the TGI in [7] was over 57.3 µM; in [8] it was 16.9 µM; in test [9], 7.59 µM; in test [10], 11.4 µM.

As to `COc1cc(OC)c(/C=C/S(=O)(=O)Cc2ccc(OC)c(N)n2)c(OC)c1`, the GI50 was under 0.01 µM in [1]; under 0.0172 µM in test [2]; under 0.0157 µM in [3]; under 0.01 µM in test [4]; under 0.01 µM in test [5]; under 0.0247 µM in test [6]. Moreover, the GI50 in test [8] is under 0.01 µM; in [9], under 0.0193 µM; in test [10] it was under 0.0126 µM. Also, the TGI in test [1] was over 100 µM; in test [2] it was over 85.9 µM; in [3] it was over 100 µM; in [4] it was over 100 µM; in test [5], over 100 µM; in [6], over 100 µM. The TGI in test [7], in [8], in test [9] and in [10] was over 100 µM throughout.

As to `NS(=O)(=O)c1cccc(Nc2cc(-c3ccc(F)cc3)[nH]n2)c1`, the GI50 in test [1] is over 21.1 µM; in test [2], over 25 µM; in test [3], 23 µM; in test [4], over 23.9 µM; in test [5] it was 12.4 µM; in test [6] it was over 25 µM. For the same molecule, the GI50 in test [7] is over 25 µM; in test [8], 11.9 µM; in test [9], over 25 µM; in test [10], 14.6 µM. Further, the TGI in [1], in test [2], in test [3], in [4], in test [5] and in [6] was over 25 µM throughout. Further, the TGI in test [7], in test [8], in [9] and in [10] was over 25 µM throughout.

Regarding `CCOC(=O)Nc1cc2c(c(N)n1)N=C(c1ccc(Cl)cc1Cl)CN2`, the TGI in test [1] was 11.6 µM; in test [2] it was over 100 µM; in test [3], over 100 µM; in test [4] it was 33.1 µM; in test [5], 33.7 µM; in test [6] it was 27.5 µM. Further, the TGI in test [7] was 23.2 µM; in [8] it was 12.7 µM; in [9] it was 2.6 µM; in test [10], 22.7 µM.
